Experimental data from patent publication US12116388B2, “Amylin receptor agonists” (Novo Nordisk A/S, priority 2022, dated 2024).
Starred links: 1 amine or outer side, 2 acyl side, 3 side chain; linkers in the order of their positions; H or OH if unused. Residues, ends and D or L forms follow the SMILES beside them. *: point of attachment. C18 diacid = O=C(O)CCCCCCCCCCCCCCCCC(=O)*; γGlu = O=C(O)[C@H](CCC(=O)[*:2])N[*:1]

Key:
[1] = target: T1, human calcitonin receptor (hCTR) (Homo sapiens, UniProt P30988); experiment: Human calcitonin receptor (hCTR) in vitro potency assay, CRE-luciferase reporter in BHK cells; type: cell-based; conditions: BHK hCTR/CRE-Luc cells, 3 hours incubation, assay buffer with 1% ovalbumin; read-out: hCalcR potency, EC50
T1 construct: host or cells: BHK (Baby Hamster Kidney), Hollex-1 cell line
T1 sequence (P30988 25-474): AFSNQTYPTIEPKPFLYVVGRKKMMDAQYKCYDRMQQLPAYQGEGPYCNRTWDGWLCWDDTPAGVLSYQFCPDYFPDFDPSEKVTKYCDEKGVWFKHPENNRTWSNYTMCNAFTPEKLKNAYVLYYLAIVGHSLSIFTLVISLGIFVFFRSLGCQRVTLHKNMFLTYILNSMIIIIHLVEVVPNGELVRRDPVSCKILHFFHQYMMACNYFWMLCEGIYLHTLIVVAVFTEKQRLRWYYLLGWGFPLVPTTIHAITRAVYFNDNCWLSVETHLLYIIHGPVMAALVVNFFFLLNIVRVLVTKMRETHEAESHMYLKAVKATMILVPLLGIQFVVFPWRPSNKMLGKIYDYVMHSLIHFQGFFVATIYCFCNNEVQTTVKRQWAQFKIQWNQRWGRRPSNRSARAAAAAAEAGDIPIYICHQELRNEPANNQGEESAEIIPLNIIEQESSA
Summary of the method: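 BHK cells stably co-expressing human calcitonin receptor and a CRE-luciferase reporter, seeded the day before, were exposed to 7-fold serial dilutions (7 concentrations, often starting near 10 nM) in DMEM/HEPES/1% ovalbumin buffer for 3 h at 37 °C. Luminescence was then read after SteadyLite Plus addition.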

[2] = target: T2, human amylin receptor (hAMYR3) (Homo sapiens, UniProt O60896+P30988); experiment: Human amylin receptor (hAMYR3) in vitro potency assay, CRE-luciferase reporter in BHK cells; type: cell-based; conditions: BHK hAMYR3/CRE-Luc cells, 3 hours incubation, assay buffer with 1% ovalbumin
T2 construct: host or cells: BHK (Baby Hamster Kidney), Hollex-1 cell line further transfected with RAMP3
T2 sequence (O60896 24-148, one chain of several): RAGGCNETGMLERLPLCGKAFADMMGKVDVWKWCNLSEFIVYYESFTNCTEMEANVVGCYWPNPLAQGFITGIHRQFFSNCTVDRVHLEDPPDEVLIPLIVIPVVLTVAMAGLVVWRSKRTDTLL
Summary of the method: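 BHK cells stably expressing human calcitonin receptor (a) plus RAMP3 and a CRE-luciferase reporter, seeded overnight, then exposed to 7-point 7-fold dilutions (often from ~10 nM) in DMEM/HEPES buffer with 1% ovalbumin for 3 h at 37 °C. Luciferase luminescence read after SteadyLite Plus addition.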

Compound | EC50 [1] [pM] | EC50 [2] [pM]
CC[C@H](C)[C@H](NC(=O)[C@@H]1CCCN1C(=O)CNC(=O)[C@H](Cc1ccccc1)NC(=O)[C@H](Cc1c[nH]cn1)NC(=O)[C@H](Cc1c[nH]cn1)NC(=O)[C@H](CC(C)C)NC(=O)[C@H](Cc1ccccc1)NC(=O)[C@H](CCC(=O)O)NC(=O)[C@H](C)NC(=O)[C@H](CC(C)C)NC(=O)[C@H](CCCNC(=N)N)NC(=O)[C@H](CCC(N)=O)NC(=O)[C@@H](NC(=O)[C@H](CCC(N)=O)NC(=O)[C@H](C)NC(=O)[C@@H](NC(=O)[C@H](CO)NC(=O)[C@H](CC(C)C)NC(=O)[C@H](Cc1c[nH]cn1)NC(=O)[C@H](CO)NC(=O)[C@H](C)NC(=O)CC[C@H](NC(=O)CC[C@H](NC(=O)CCCCCCCCCCCCCCCCC(=O)O)C(=O)O)C(=O)O)[C@@H](C)O)[C@@H](C)O)C(=O)N[C@@H](CC(C)C)C(=O)N1CCC[C@H]1C(=O)N1CCC[C@H]1C(=O)N[C@H](C(=O)N[C@@H](CC(=O)O)C(=O)N[C@H](C(=O)NCC(=O)N[C@@H](CO)C(=O)N[C@@H](CCC(=O)O)C(=O)N[C@H](C(=O)N[C@@H](Cc1ccc(O)cc1)C(N)=O)[C@@H](C)O)C(C)C)[C@@H](C)O [Compound 32, N^1-[(4S)-4-carboxy-4-[[(4S)-4-carboxy-4-(17-carboxyheptadecanoylamino)butanoyl]amino]butanoyl]-[Ala1,Ser2,His3,Leu4,Ser5,Ala7,Gln8,Glu14,His17,Pro25,Pro28,Pro29,Asp31,Glu35],des-(19-22)-human amylin] ({C18 diacid-γGlu-γGlu}-ASHLSTAQTQRLAEFLHHFGPILPPTDVGSETY-NH2) | 15.7 | 5.71
CC[C@H](C)[C@H](NC(=O)[C@@H]1CCCN1C(=O)CNC(=O)[C@H](Cc1ccccc1)NC(=O)[C@H](Cc1c[nH]cn1)NC(=O)[C@H](Cc1c[nH]cn1)NC(=O)[C@H](CC(C)C)NC(=O)[C@H](Cc1ccccc1)NC(=O)[C@H](CCC(=O)O)NC(=O)[C@H](C)NC(=O)[C@H](CC(C)C)NC(=O)[C@H](CCCNC(=N)N)NC(=O)[C@H](CCC(N)=O)NC(=O)[C@@H](NC(=O)[C@H](CCC(N)=O)NC(=O)[C@H](CC(C)C)NC(=O)[C@@H](NC(=O)[C@H](CO)NC(=O)[C@H](CC(C)C)NC(=O)[C@H](Cc1c[nH]cn1)NC(=O)[C@H](CO)NC(=O)[C@H](C)NC(=O)CC[C@H](NC(=O)CCCCCCCCCCCCCCCCC(=O)O)C(=O)O)[C@@H](C)O)[C@@H](C)O)C(=O)N[C@@H](CC(C)C)C(=O)N1CCC[C@H]1C(=O)N1CCC[C@H]1C(=O)N[C@H](C(=O)N[C@@H](CC(=O)O)C(=O)N[C@H](C(=O)NCC(=O)N[C@@H](CO)C(=O)N[C@@H](CCC(=O)O)C(=O)N[C@H](C(=O)N1CCC[C@H]1C(N)=O)[C@@H](C)O)C(C)C)[C@@H](C)O [Compound 35, N^1-[(4S)-4-carboxy-4-(17-carboxyheptadecanoylamino)butanoyl]-[Ala1,Ser2,His3,Leu4,Ser5,Leu7,Gln8,Glu14,His17,Pro25,Pro28,Pro29,Asp31,Glu35,Pro37],des-(19-22)-human amylin] ({C18 diacid-γGlu}-ASHLSTLQTQRLAEFLHHFGPILPPTDVGSETP-NH2) | 2.26 | 1.6
CC[C@H](C)[C@H](NC(=O)[C@H](C)NC(=O)CNC(=O)[C@H](Cc1ccccc1)NC(=O)[C@@H]1CCCN1C(=O)[C@H](CC(=O)O)NC(=O)[C@H](CO)NC(=O)[C@H](CO)NC(=O)[C@H](Cc1c[nH]cn1)NC(=O)[C@H](Cc1c[nH]cn1)NC(=O)[C@H](CC(C)C)NC(=O)[C@H](Cc1ccccc1)NC(=O)[C@H](CCC(=O)O)NC(=O)[C@H](C)NC(=O)[C@H](CC(C)C)NC(=O)[C@H](CCCNC(=N)N)NC(=O)[C@H](CCC(N)=O)NC(=O)[C@@H](NC(=O)[C@H](CCC(N)=O)NC(=O)[C@H](C)NC(=O)[C@@H](NC(=O)[C@H](CO)NC(=O)[C@H](CC(C)C)NC(=O)[C@H](Cc1c[nH]cn1)NC(=O)[C@H](CO)NC(=O)[C@H](C)NC(=O)CC[C@H](NC(=O)CCCCCCCCCCCCCCCCC(=O)O)C(=O)O)[C@@H](C)O)[C@@H](C)O)C(=O)N1CCC[C@H]1C(=O)N[C@@H](CO)C(=O)N[C@@H](CO)C(=O)N[C@H](C(=O)N[C@@H](CC(=O)O)C(=O)N[C@H](C(=O)NCC(=O)N1CCC[C@H]1C(=O)N[C@@H](CC(=O)O)C(=O)N[C@H](C(=O)N[C@@H](Cc1ccc(O)cc1)C(N)=O)[C@@H](C)O)C(C)C)[C@@H](C)O [Compound 36, N^1-[(4S)-4-carboxy-4-(17-carboxyheptadecanoylamino)butanoyl]-[Ala1,Ser2,His3,Leu4,Ser5,Ala7,Gln8,Glu14,His17,Asp21,Pro22,Pro27,Asp31,Pro34,Asp35]-human amylin] ({C18 diacid-γGlu}-ASHLSTAQTQRLAEFLHHSSDPFGAIPSSTDVGPDTY-NH2) | 3.22 | 2.96

Now those with a lower EC50 [1], led by results:

EC50 [1] [pM] | EC50 [2] [pM] | Compound
1.74 | 1.69 | CC[C@H](C)[C@H](NC(=O)[C@H](C)NC(=O)CNC(=O)[C@H](Cc1ccccc1)NC(=O)[C@@H]1CCCN1C(=O)[C@H](CC(=O)O)NC(=O)[C@H](CO)NC(=O)[C@H](CO)NC(=O)[C@H](Cc1c[nH]cn1)NC(=O)[C@H](Cc1c[nH]cn1)NC(=O)[C@H](CC(C)C)NC(=O)[C@H](Cc1ccccc1)NC(=O)[C@H](CCC(=O)O)NC(=O)[C@H](C)NC(=O)[C@H](CC(C)C)NC(=O)[C@H](CCCNC(=N)N)NC(=O)[C@H](CCC(N)=O)NC(=O)[C@@H](NC(=O)[C@H](CCC(N)=O)NC(=O)[C@H](CC(C)C)NC(=O)[C@@H](NC(=O)[C@H](CO)NC(=O)[C@H](CC(C)C)NC(=O)[C@H](Cc1c[nH]cn1)NC(=O)[C@H](CO)NC(=O)[C@H](C)NC(=O)CC[C@H](NC(=O)CCCCCCCCCCCCCCCCC(=O)O)C(=O)O)[C@@H](C)O)[C@@H](C)O)C(=O)N1CCC[C@H]1C(=O)N[C@@H](CO)C(=O)N[C@@H](CO)C(=O)N[C@H](C(=O)N[C@@H](CC(=O)O)C(=O)N[C@H](C(=O)NCC(=O)N1CCC[C@H]1C(=O)N[C@@H](CC(=O)O)C(=O)N[C@H](C(=O)N1CCC[C@H]1C(N)=O)[C@@H](C)O)C(C)C)[C@@H](C)O [Compound 33, N^1-[(4S)-4-carboxy-4-(17-carboxyheptadecanoylamino)butanoyl]-[Ala1,Ser2,His3,Leu4,Ser5,Leu7,Gln8,Glu14,His17,Asp21,Pro22,Pro27,Asp31,Pro34,Asp35,Pro37]-human amylin] ({C18 diacid-γGlu}-ASHLSTLQTQRLAEFLHHSSDPFGAIPSSTDVGPDTP-NH2)
2.06 | 1.91 | CC[C@H](C)[C@H](NC(=O)[C@@H]1CCCN1C(=O)CNC(=O)[C@H](Cc1ccccc1)NC(=O)[C@H](CC(N)=O)NC(=O)[C@H](CC(=O)O)NC(=O)[C@H](CO)NC(=O)[C@H](CO)NC(=O)[C@H](Cc1c[nH]cn1)NC(=O)[C@H](Cc1c[nH]cn1)NC(=O)[C@H](CC(C)C)NC(=O)[C@H](Cc1ccccc1)NC(=O)[C@H](CCC(=O)O)NC(=O)[C@H](C)NC(=O)[C@H](CC(C)C)NC(=O)[C@H](CCCNC(=N)N)NC(=O)[C@H](CCC(N)=O)NC(=O)[C@@H](NC(=O)[C@H](CCC(N)=O)NC(=O)[C@H](CC(C)C)NC(=O)[C@@H](NC(=O)[C@H](CO)NC(=O)[C@H](CC(C)C)NC(=O)[C@H](Cc1c[nH]cn1)NC(=O)[C@H](CO)NC(=O)[C@H](C)NC(=O)CC[C@H](NC(=O)CCCCCCCCCCCCCCCCC(=O)O)C(=O)O)[C@@H](C)O)[C@@H](C)O)C(=O)N[C@@H](CC(C)C)C(=O)N1CCC[C@H]1C(=O)N1CCC[C@H]1C(=O)N[C@H](C(=O)N[C@@H](CC(=O)O)C(=O)N[C@H](C(=O)NCC(=O)N[C@@H](CO)C(=O)N[C@@H](CC(N)=O)C(=O)N[C@H](C(=O)N1CCC[C@H]1C(N)=O)[C@@H](C)O)C(C)C)[C@@H](C)O [Compound 34, N^1-[(4S)-4-carboxy-4-(17-carboxyheptadecanoylamino)butanoyl]-[Ala1,Ser2,His3,Leu4,Ser5,Leu7,Gln8,Glu14,His17,Asp21,Pro25,Pro28,Pro29,Asp31,Pro37]-human amylin] ({C18 diacid-γGlu}-ASHLSTLQTQRLAEFLHHSSDNFGPILPPTDVGSNTP-NH2)
